Experimental data as given in US11236052B2, “Aminobenzimidazole derivatives, treatments, and methods of inhibiting histone deacetylase” (TRANSLATIONAL DRUG DEVELOPMENT, LLC, priority 2017, dated 2022).
Like-named read-outs stand apart in the source and are kept apart here.

Columns and labels:
K562 = assay: CellTiter-Glo cell viability assay, K562; format: cell-based; details: CML; for IC50: Homo sapiens, K562, 72 hours
Protocol: (§1) Cell Viability Assay—Cell viability was measured by the CellTiter-Glo® cell viability assay Promega (Madison, Wis.). The CellTiter-Glo® Luminescent Cell Viability Assay is a homogeneous method to determine the number of viable cells in culture based on quantitation of the ATP present, which signals the presence of metabolically active cells. Following treatment, CellTiter-Glo® is added to treatment wells and incubated at 37° C. luminescence values were measured at using a Molecular Devices Spectramax microplate reader.
(§2) Single Agent Studies—Cells were grown to 70% confluency, trypsinized, counted, and seeded in 96 well flat-bottom plates at a final concentration of 2.5×10^3-5×10^3 cells/well (Day 0). Cells were allowed to incubate in growth media for 24 hours. Treatment with the test agents began on Day 1 and continued for 72 hours. At the 72-hour time point, treatment-containing media was removed. Viable cell numbers are quantified by the CellTiter-Glo® cell viability assay as described above. Experiments were run with triplicate concentrations to determine growth inhibitory activity. Results from these studies were used to calculate an IC50 value (concentration of drug that inhibits cell growth by 50 percent of control) for each compound.
(§3) Data Collection—For single agent and combination studies, data from each experiment was collected and expressed as % Cell Growth using the following calculation: % Cell Growth=(ftest/fvehicle)×100
(§4) Where ftest is the luminescence of the tested sample, and fvehicle is the luminescence of the vehicle in which the drug is dissolved. Dose response graphs and IC50 values were generated using Prism 6 software (GraphPad).

MCF7 = assay: CellTiter-Glo cell viability assay, MCF7; format: cell-based; details: Breast; for IC50: Homo sapiens, MCF7, 72 hours
Protocol: as §1, §2, §3, §4

MFE296 = assay: CellTiter-Glo cell viability assay, MFE296; format: cell-based; details: Uterine; for IC50: Homo sapiens, MFE-296, MFE296, 72 hours
Protocol: as §1, §2, §3, §4

JEKO = assay: CellTiter-Glo cell viability assay, JEKO; format: cell-based; details: Lymphoma; for IC50: 72 hours
Protocol: as §1, §2, §3, §4

H1650 = assay: CellTiter-Glo cell viability assay, H1650; format: cell-based; details: NSCLC; for IC50: Homo sapiens, NCI-H1650, H1650, 72 hours
Protocol: as §1, §2, §3, §4

[1] = Pharmacokinetic studies in the mouse; format: in vivo; details: for Vd: read-out: Vss; for Vd/F: read-out: Vz/F obs
Protocol: Plasma samples were collected from healthy mice and analyzed for levels of compound ID #1, ID #2, and ID #3 and reported in Table 5. In brief, compounds were individually and accurately weighed out to produce a stock solution in Dimethyl-sulfoxide (DMSO) at a concentration of 2 mg/mL and stored at −20° C. From the stock solution, a working stock was prepared by diluting it in Methanol-Water 50:50 (v/v) at 20 μg/mL for calibration curve preparation and stored at 4° C. Standards used for quantitation and quality control samples (QC's) were prepared on the same day of sample processing using blank plasma obtained from non-treated mice. For each analyte, standards were prepared through serial dilution of the working stock at concentrations of 0.1, 0.5, 1.0, 10, 50, 100, 500 and 1000 ng/mL; QC's were prepared at intermediate concentrations of 0.75, 7.5, 75 and 750 ng/mL. Plasma samples were stored at −80° C. until ready for analysis and then placed on ice for thawing. An aliquot of 20 μL for samples, standards and QC's, were transferred into a 96-well extraction plate according to a pre-defined layout. Appropriate volume of Methanol-Formic Acid 99.9-0.1 containing internal standard (Verapamil at 25 ng/mL) was added to each well and samples were extracted under vacuum. Eluent was then transferred into a LCMS plate for analysis using a suitable column for separation and MRM detection. Concentration of analytes was calculated based on the calibration curve and analyzed for pharmacokinetic parameters by using Non-compartmental analysis (NCA) using WinNonlin Phoenix software. Parameters such as Cmax, Tmax, half-life, AUC(0-last), AUC(0-∞), volume of distribution (Vss) and clearance (Cl/F) were reported.
The analogs were tested for pharmacokinetic analysis in the mouse with doses of 1 mg/kg for intravenous (IV) route and 5 mg/kg for oral (P0) route. […] Overall exposure following IV dose also favored compound ID #1 with AUCO-∞ 1488.1 hr*ng/mL whereas compound ID #2 and ID #3 were 329.1 and 1193.7 hr*ng/mL, respectively.

RS4-11 = assay: CellTiter-Glo cell viability assay, RS4-11; format: cell-based; details: ALL; for IC50: Homo sapiens, RS4-11, 72 hours
Protocol: as §1, §2, §3, §4

[2] = tested on: MM1.S human myeloma cells; assay: Human MM1.S xenograft model, single agent screening; format: in vivo, mice; details: 100 mg/kg daily for 19 days, oral gavage; compared to Compound ID #2 or Compound ID #3
Protocol: In vivo efficacy studies of Compound ID #1, Compound ID #2, and Compound ID #3 were tested in human MM1.S xenograft model as shown in FIG. 1. […] Group 2 (G2) was treated with Compound ID #1 at 100 mg/kg daily for 19 days. Group 3 (G3) was treated with Compound ID #2 at 100 mg/kg daily for 19 days. Group 4 (G4) was treated with Compound ID #3 at 100 mg/kg daily for 19 days. Vehicle and Compound ID #1, Compound ID #2 and Compound ID #3 were administered orally via oral gavage. Body weights and tumor measurements were collected twice weekly.

[3] = tested on: MM1.S human myeloma cells; assay: Human MM1.S xenograft model, combination screening with pomalidomide/dexamethasone; format: in vivo, mice; details: 100 mg/kg daily for 19 days oral plus pomalidomide 10 mg/kg / dexamethasone 0.3 mg/kg; compared to ID #2 or ID #3 combinations
Protocol: Group 3 (G3) was treated with Compound ID #1 at 100 mg/kg daily for 19 days. Group 4 (G4) was treated with Compound ID #2 at 100 mg/kg daily for 19 days. Group 5 (G5) was treated with Compound ID #3 at 100 mg/kg daily for 19 days. […] Vehicle and Compound ID #1, Compound ID #2 and Compound ID #3 were administered orally via oral gavage. Body weights and tumor measurements were collected twice weekly.

[4] = plasma, 1.0 mg/kg IV, read-out: Half-life (converted)
[5] = plasma, 5.0 mg/kg PO, read-out: Half-life (converted)
[6] = plasma, iv, 1 mg/kg, 1.0 mg/kg IV, read-out: AUC0-∞
[7] = plasma, iv, 1 mg/kg, 1.0 mg/kg IV, read-out: Cmax
[8] = plasma, po, 5 mg/kg, 5.0 mg/kg PO, read-out: AUC0-∞
[9] = plasma, po, 5 mg/kg, 5.0 mg/kg PO, read-out: Cmax
[10] = plasma, po, 5 mg/kg, 5 mg/kg oral, read-out: AUC0-∞ (overall exposure following oral doses)

O=C(NO)c1ccc(Nc2nc3ccccc3n2C2CCCCCC2)cc1 [ID #3, 4-((1-cycloheptyl-1H-benzo[d]imidazol-2-yl)amino)-N-hydroxybenzamide] showed an IC50 (K562) of 5.25 µM, an IC50 (MCF7) of 3550 nM and an IC50 (MFE296) of 12.6 µM. For the same compound, the IC50 (JEKO) was 2220 nM, the IC50 (H1650) was 18.2 µM and the “AUC0-∞” value ([1]; 1.0 mg/kg IV) was 1193.68 ng·h/mL. The “AUC % Extrap” value ([1]; 1.0 mg/kg IV) was 0.16%, the Cl/F obs ([1]; 1.0 mg/kg IV) was 0.84 L/h/kg and the “Rsq (>0.85)” value ([1]; 1.0 mg/kg IV) was 0.92. For the same compound, the half-life ([1]; 1.0 mg/kg IV) was 142 min, the “AUC % Extrap” value ([1]; 5.0 mg/kg PO) was 0.38% and the Cmax ([1]; 5.0 mg/kg PO) was 348.57 ng/mL. For the same compound, the “Rsq (>0.85)” value ([1]; 5.0 mg/kg PO) was 1.00, the AUC(0-t) ([1]; plasma, 1.0 mg/kg IV) was 1190 ng·h/mL and the Tmax ([1]; plasma, 1.0 mg/kg IV) was 4.8 min. For the same compound, the half-life [1, 4] was 142 min, the Vd ([1]; plasma, 1.0 mg/kg IV) was 1.96 L/kg and the AUC(0-t) ([1]; plasma, 5.0 mg/kg PO) was 1640 ng·h/mL. The CL/F ([1]; plasma, 5.0 mg/kg PO) was 50.5 mL/min/kg, the Tmax ([1]; plasma, 5.0 mg/kg PO) was 15 min and the bioavailability ([1]; plasma, 5.0 mg/kg PO) was 27.6%. The half-life [1, 5] was 179 min, the Vd/F ([1]; plasma, 5.0 mg/kg PO) was 13.1 L/kg and the AUC(0-inf) [1, 6] was 1190 ng·h/mL. It also gave a Cmax [1, 7] of 830 ng/mL, an AUC(0-inf) [1, 8] of 1650 ng·h/mL and a Cmax [1, 9] of 349 ng/mL. For the same compound, the AUC(0-inf) [1, 10] was 1650 ng·h/mL and the IC50 (RS4-11) was 2440 nM.
In the case of O=C(NO)c1ccc(Nc2nc3ccccc3n2CC2CCCCC2)cc1 [ID #1, 4-((1-(cyclohexylmethyl)-1H-benzo[d]imidazol-2-yl)amino)-N-hydroxybenzamide], the “Improvement ID #1 over ID #3 Percent” value (K562; K562) is reported as 69.90%, the “Improvement ID #1 over ID #3 fold” value (K562; K562) is reported as 3.32 fold and the IC50 (K562) is reported as 1.58 µM. The “Improvement ID #1 over ID #3 Percent” value (MCF7; MCF7) was 44.79%, the “Improvement ID #1 over ID #3 fold” value (MCF7; MCF7) was 1.81 fold and the IC50 (MCF7) was 1960 nM. The IC50 (MFE296) was 4.37 µM, the “Improvement ID #1 over ID #3 Percent” value (MFE296; MFE296) was 65.29% and the “Improvement ID #1 over ID #3 fold” value (MFE296; MFE296) was 2.88 fold. For the same compound, the “Improvement ID #1 over ID #3 Percent” value (JEKO) was 56.31%, the “Improvement ID #1 over ID #3 fold” value (JEKO) was 2.29 fold and the IC50 (JEKO) was 970 nM. The IC50 (H1650) was 6.61 µM, the “Improvement ID #1 over ID #3 Percent” value (H1650; H1650) was 63.68% and the “Improvement ID #1 over ID #3 fold” value (H1650; H1650) was 2.75 fold. The “anticancer activity (tumor volume)” value [2] was “significantly superior anticancer activity”, the “AUC0-∞” value ([1]; 1.0 mg/kg IV) was 1488.05 ng·h/mL and the “AUC % Extrap” value ([1]; 1.0 mg/kg IV) was 0.25%. For the same compound, the Cl/F obs ([1]; 1.0 mg/kg IV) was 0.69 L/h/kg, the “Rsq (>0.85)” value ([1]; 1.0 mg/kg IV) was 0.97 and the half-life ([1]; 1.0 mg/kg IV) was 222 min. The “AUC % Extrap” value ([1]; 5.0 mg/kg PO) was 0.75%, the Cmax ([1]; 5.0 mg/kg PO) was 757.43 ng/mL and the “Rsq (>0.85)” value ([1]; 5.0 mg/kg PO) was 0.99. It also gave an AUC(0-t) ([1]; plasma, 1.0 mg/kg IV) of 1440 ng·h/mL, a Tmax ([1]; plasma, 1.0 mg/kg IV) of 4.8 min and a half-life [1, 4] of 222 min. The Vd ([1]; plasma, 1.0 mg/kg IV) was 1.21 L/kg, the AUC(0-t) ([1]; plasma, 5.0 mg/kg PO) was 3220 ng·h/mL and the CL/F ([1]; plasma, 5.0 mg/kg PO) was 21 mL/min/kg. The Tmax ([1]; plasma, 5.0 mg/kg PO) was 30 min, the bioavailability ([1]; plasma, 5.0 mg/kg PO) was 53.4% and the half-life [1, 5] was 203 min. It also gave a Vd/F ([1]; plasma, 5.0 mg/kg PO) of 6.16 L/kg, an AUC(0-inf) [1, 6] of 1490 ng·h/mL and a Cmax [1, 7] of 1290 ng/mL. For the same compound, the AUC(0-inf) [1, 8] was 3970 ng·h/mL, the Cmax [1, 9] was 757 ng/mL and the AUC(0-inf) [1, 10] was 3970 ng·h/mL. For the same compound, the “Improvement ID #1 over ID #3 Percent” value (RS4-11; RS4-11) was 54.92%, the “Improvement ID #1 over ID #3 fold” value (RS4-11; RS4-11) was 2.22 fold and the IC50 (RS4-11) was 1100 nM. For the same compound, the “anticancer activity (tumor volume) when combined with pomalidomide/dexamethasone” value [3] was “significantly superior anticancer activity”.
